Legend:
[1] = test system: normal mice; assay: Loaded swimming in normal mice; type: in vivo; details: 2 g weight on tail, 20 min after 13.3 mL/kg intragastric
From the text: Female ICR mice, 8 weeks old and 20±2 g in body weight, were purchased from Beijing HFK Bioscience Co., Ltd.
The solutions of Composition 1 to 7 prepared in this example were used.
After the mice were fed normally for 3 days, they were randomly divided into 11 groups by body weight, i.e., a blank control group, administration groups 1 to 7 and negative control groups 1 to 3. The mice in administration groups 1 to 7 were intragastrically administered with the solution of Compositions 1 to 7 respectively a dose of 13.3 mL/kg body weight while the mice in the blank control group were intragastrically given sterile water for medical use at a dose of 13.3 mL/kg body weight. The mice in negative control groups 1 to 3 were intragastrically given the solution of trehalose (0.15 g/mL), the solution of validamycin (0.3 mg/mL) and the solution of algal polysaccharides (0.15 g/mL) respectively at a dose of 13.3 mL/kg body weight. Twenty minutes after the administration, a weight of 2 g was fixed to the tail of each mouse and the mice were put into a pool to swim with load. The bath temperature was 25±2° C., and the depth was more than 30 cm. The survival time in the loaded swimming was recorded (when all parts of a mouse were under water for 10 s, the mouse was considered to be unable to rise to the surface).

[2] = test system: normal mice; assay: Defecation quantity and body weight changes in normal mice (sliming); type: in vivo
Method: (§1) Male ICR mice, 8 weeks old and 20±2 g in body weight, were purchased from Beijing HFK Bioscience Co., Ltd.
(§2) The solutions of Compositions 1 to 7 prepared in this example were used.
After the mice were fed normally for 3 days, they were given no food but water for 4 h. By body weight, they were randomly divided into 11 groups, i.e., a blank control group, administration groups 1 to 7 and negative control groups 1 to 3. The mice in administration groups 1 to 7 were intragastrically administered with the solutions of Compositions 1 to 7 respectively at a dose of 13.3 mL/kg body weight. On the other hand, the mice in the blank control group were intragastrically given sterile water for medical use at a dose of 13.3 mL/kg body weight. Further, the mice in negative control groups 1 to 3 were intragastrically given the solution of trehalose (0.15 g/mL), the solution of validamycin (0.3 mg/mL) and the solution of algal polysaccharides (0.15 g/mL) respectively at a dose of 13.3 mL/kg body weight. At 20 to 30 min post administration, mice were allowed to eat freely and the defecation quantity in the mice from each group before and after administration (average feces quantity of the mice in each group), the percentages of defecation quantities before and after administration based on the total defecation quantities throughout the experiment and the body weight were recorded.

[3] = test system: Male ICR mice; assay: In vivo absorption: blood glucose in fasted normal mice after intragastric administration; details: for Blood glucose level after administration: 13.3 mL/kg intragastric; for Blood glucose level before administration: baseline, mice fasted 12 h; for blood glucose level compared to the blank control group: before or after administration, normal mice
Method: Male ICR mice, 8 weeks old, 20±2 g in body weight, were purchased from Beijing HFK Bioscience Co., Ltd.
The composition used in the present experiment example was the solution of Composition 1. In particular, 15 g of trehalose and 3 mg of validamycin were picked and then dissolved in 100 mL of sterile water for medical use to provide the solution of Composition 1 which was kept for future use.
After normally fed for 3 days, the mice fasted for 12 h with water sufficiently supplied. Then, they were randomly divided into 4 groups depending on the blood glucose, i.e., a blank control group, an administration group, and negative control group 1 and negative control group 2. The mice in the administration group were intragastrically given the solution of Composition 1 prepared in this experimental example at a dose of 13.3 mL/kg body weight while the mice in the blank control group were intragastrically given sterile water for medical use at a dose of 13.3 mL/kg body weight. In addition, the mice in negative control group 1 and 2 were respectively intragastrically given the solution of trehalose (0.15 g/mL) and the solution of validamycin (0.3 mg/mL) at the same dose of 13.3 mL/kg body weight. The blood glucose levels before administration and 10 min, 25 min, 40 min and 60 min post administration were measured respectively, and the results were shown in Table 2.

[4] = test system: normal mice; assay: Acetic acid writhing (pain) in normal mice; type: in vivo; details: for Time of initial writhing: 13.3 mL/kg intragastric, 0.6% acetic acid i.p. 20 min later; for Pain inhibition ratio: relative to number of writhings in blank control group; for Number of writhings: within 30 min after acetic acid injection
From the text: as §1, §2
After mice were normally fed for 3 days, they were randomly divided into 11 groups depending on body weight, i.e., a blank control group, administration groups 1 to 7 and negative control groups 1 to 3, by body weight. The mice in administration groups 1 to 7 were intragastrically given the solutions of Compositions 1 to 7 respectively at a dose of 13.3 mL/kg body weight while the mice in the blank control group were intragastrically given sterile water for medical use at a dose of 13.3 mL/kg body weight. The mice in negative control groups 1 to 3 were intragastrically given the solution of trehalose (0.15 g/mL), the solution of validamycin (0.3 mg/mL) and the solution of algal polysaccharides (0.15 g/mL) at a dose of 13.3 mL/kg body weight respectively. Twenty minutes after the administration, the mice were intraperitoneally administered with 0.2 ml of solution of acetic acid (0.6%). Then, the number of writhing and time when initial writhing occurred in mice were observed within 30 min after injection of acetic acid solution and the pain inhibition ratio (pain inhibition ratio=(number of writhings in the blank control group—number of writhings in the administration group)/number of writhings in the blank control group) was calculated.

[5] = after administration, 13.3 mL/kg intragastric

Compound | Survival time [1] | Body weight [2, 5] | Percentage of defecation quantity in each stage based the total defecation quantity [2, 5] | defecation quantity [2, 5] | Body weight ([2]; before administration) | Percentage of defecation quantity in each stage based the total defecation quantity ([2]; before administration) | defecation quantity ([2]; before administration) | Blood glucose level after administration ([3]; 10 min) | Blood glucose level after administration ([3]; 25 min) | Blood glucose level after administration ([3]; 40 min) | Blood glucose level after administration ([3]; 60 min) | Blood glucose level before administration [3] | blood glucose level compared to the blank control group [3] | Time of initial writhing [4] | Pain inhibition ratio [4] | Number of writhings [4]
OC[C@H]1O[C@H](O[C@H]2O[C@H](CO)[C@@H](O)[C@H](O)[C@H]2O)[C@H](O)[C@@H](O)[C@@H]1O [trehalose] | 13.45 ± 2.54 min | 19.10 g | 37.84% | 0.70 ± 0.01 g | 19.80 g | 62.16% | 1.15 ± 0.03 g | 6.4 ± 0.40 mmol/L | 9.5 ± 1.00 mmol/L | 11.0 ± 0.30 mmol/L | 9.5 ± 1.12 mmol/L | 4.9 ± 0.53 mmol/L | increased significantly | 3.4 ± 1.1 min | 0.0% | 51.3 ± 1.6
OCC1=C[C@H](N[C@H]2C[C@H](CO)[C@@H](O[C@@H]3O[C@H](CO)[C@@H](O)[C@H](O)[C@H]3O)[C@H](O)[C@H]2O)[C@H](O)[C@@H](O)[C@@H]1O [validamycin] | 12.54 ± 1.08 min | 19.45 g | 35.26% | 0.67 ± 0.05 g | 20.12 g | 64.74% | 1.23 ± 0.04 g | 5.3 ± 0.45 mmol/L | 5.7 ± 0.56 mmol/L | 5.2 ± 0.23 mmol/L | 5.3 ± 0.20 mmol/L | 5.2 ± 0.44 mmol/L | no significant difference | 3.6 ± 1.6 min | 0.0% | 51.9 ± 2.1
